Measurements published in ChEMBL document CHEMBL1201862, “PubChem BioAssay data set” (2004).
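Assay format: 96-well plates, 48-hour exposure. Here, GI50 denotes the concentration required for 50% inhibition of growth.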 Active and inactive are the calls of the source. Cut-off read from the data, not from the text of the source: active = GI50 up to about 1.1 µM and inactive = higher.

Assays:
Assay in all cases: DTP human tumour cell line panel, 48 h
HCT-116 = system: HCT-116
K562 = system: K562
CCRF-CEM = system: CCRF-CEM
MDA-N = system: MDA-N
SNB-19 = system: SNB-19
M14 = system: M14
HL-60 = system: HL-60
NCI-H460 = system: NCI-H460
UACC-62 = system: UACC-62
OVCAR-8 = system: OVCAR-8
SN12C = system: SN12C
RPMI-8226 = system: RPMI-8226
PC-3 = system: PC-3
BT-549 = system: BT-549
OVCAR-4 = system: OVCAR-4
DU-145 = system: DU-145
MCF7 = system: MCF7
TK-10 = system: TK-10
LOX IMVI = system: LOX IMVI
EKVX = system: EKVX

Measured: GI50

CCCCn1cnc2c(c(CC#N)nn2-c2ccccc2)c1=N
inactive: HCT-116 48.6 µM | K562 34 µM | CCRF-CEM 47.6 µM | MDA-N 38.1 µM | SNB-19 > 100 µM | M14 53.2 µM | HL-60 34 µM | NCI-H460 39.9 µM | UACC-62 20.2 µM | OVCAR-8 41.4 µM | SN12C 70.8 µM | RPMI-8226 27.4 µM | PC-3 36.8 µM | BT-549 37.8 µM | OVCAR-4 29.8 µM | DU-145 76 µM | MCF7 43.2 µM | TK-10 64.7 µM | LOX IMVI 39.3 µM | EKVX 48.8 µM

Cc1cc2oc(=N)c(C#N)c(C)c2cc1C
inactive: HCT-116 53.1 µM | K562 24.5 µM | CCRF-CEM 36.6 µM | MDA-N 96.8 µM | SNB-19 83.2 µM | M14 67.6 µM | HL-60 33.4 µM | NCI-H460 46.7 µM | UACC-62 47.4 µM | OVCAR-8 72.3 µM | SN12C 96.2 µM | RPMI-8226 42.7 µM | PC-3 36.9 µM | BT-549 39.4 µM | OVCAR-4 56.2 µM | DU-145 84.7 µM | MCF7 31.9 µM | TK-10 67.3 µM | LOX IMVI 90.2 µM | EKVX 30.3 µM

NC(=O)c1cnc2sc3ccccc3n2c1=O
inactive: HCT-116 > 100 µM | K562 > 100 µM | CCRF-CEM > 100 µM | MDA-N > 100 µM | SNB-19 > 100 µM | M14 > 100 µM | HL-60 > 100 µM | NCI-H460 > 100 µM | UACC-62 > 100 µM | OVCAR-8 > 100 µM | SN12C > 100 µM | RPMI-8226 > 100 µM | PC-3 > 100 µM | BT-549 > 100 µM | OVCAR-4 > 100 µM | DU-145 > 100 µM | MCF7 > 100 µM | TK-10 > 100 µM | LOX IMVI > 100 µM | EKVX 21.9 µM

O=C(O)/C=N/NC(=S)NC1CCCCC1
inactive: HCT-116 > 100 µM | K562 > 100 µM | CCRF-CEM > 100 µM | MDA-N > 100 µM | SNB-19 > 100 µM | M14 > 100 µM | HL-60 > 100 µM | NCI-H460 > 100 µM | UACC-62 > 100 µM | OVCAR-8 > 100 µM | SN12C > 100 µM | RPMI-8226 > 100 µM | PC-3 > 100 µM | BT-549 > 100 µM | OVCAR-4 > 100 µM | DU-145 > 100 µM | MCF7 > 100 µM | TK-10 > 100 µM | LOX IMVI > 100 µM | EKVX > 100 µM

C[N+](C)(C)c1ncnc2c1ncn2C1CCCCO1 (centres undefined)
inactive: HCT-116 > 100 µM | K562 > 100 µM | CCRF-CEM > 100 µM | MDA-N > 100 µM | SNB-19 > 100 µM | M14 > 100 µM | HL-60 > 100 µM | NCI-H460 > 100 µM | UACC-62 > 100 µM | OVCAR-8 > 100 µM | SN12C > 100 µM | RPMI-8226 > 100 µM | PC-3 > 100 µM | BT-549 > 100 µM | OVCAR-4 > 100 µM | DU-145 > 100 µM | MCF7 > 100 µM | TK-10 > 100 µM | LOX IMVI > 100 µM | EKVX > 100 µM

Cn1c(=S)[nH]c2sc3c(c2c1=O)CCSC3
inactive: HCT-116 34.8 µM | K562 42.9 µM | MDA-N 54.7 µM | SNB-19 47.4 µM | M14 35.2 µM | HL-60 16.7 µM | NCI-H460 35.8 µM | UACC-62 24.8 µM | OVCAR-8 39.8 µM | SN12C 40 µM | RPMI-8226 32.4 µM | PC-3 44.2 µM | BT-549 32.4 µM | OVCAR-4 43 µM | DU-145 24.3 µM | MCF7 44.3 µM | TK-10 80.5 µM | LOX IMVI 36.6 µM | EKVX 20.8 µM

O[C@@H]1C[C@H]2N3CC[C@@]2(c2cc4c(cc2C3)OCO4)[C@H]2O[C@@H]12
inactive: HCT-116 > 100 µM | K562 > 100 µM | CCRF-CEM > 100 µM | MDA-N > 100 µM | SNB-19 > 100 µM | M14 > 100 µM | HL-60 > 100 µM | NCI-H460 > 100 µM | UACC-62 > 100 µM | OVCAR-8 > 100 µM | SN12C > 100 µM | RPMI-8226 > 100 µM | PC-3 > 100 µM | BT-549 > 100 µM | OVCAR-4 > 100 µM | DU-145 > 100 µM | MCF7 > 100 µM | TK-10 > 100 µM | LOX IMVI > 100 µM | EKVX > 100 µM
